Data on nine compounds can be found in US4889860A (Nova Pharmaceutical Corporation, priority 1987, dated 1989).

For orientation: Ki means the dissociation constant of the complex between target and ligand, obtained from inhibition or displacement.

Where two headings read alike, the source gives them in different places.

In data set [1] the test system is bombesin-induced scratching. Nature of the data set: bombesin-induced scratching test. Format: in vivo. The following applies: sc; subcutaneous; read-out: mean A50, bombesin-induced scratching. The source says: (§1) (Cowan A. Trendsin Pharmacology Science, 7:69-72, 1986) With this test the intracerebroventricular administration of bombesin produces a characteristic scratching response.

Another data set has as its target T1, mu-type opioid receptor (Rattus norvegicus, UniProt P33535).
T1 construct: using rat forebrain membranes; from tissue; host or cells: rat forebrain membranes
Nature of the data set: inhibition of specific [^3 H] DAGO binding to rat forebrain membranes. How it is done:
(§2) The interaction of some of the novel compounds with mu and delta-type opioid receptors present in brain membranes was examined in vitro. […] DAGO (mu-type receptor) or [^3 H] DADLE (delta-type receptor) was determined using rat forebrain membranes. Computer assisted analysis (EBDA) was used to determine apparent Ki values for the various compounds.
(§3) Values represent the MEAN±S.E.M. of the Ki(nM) for each compound to inhibit specific binding of the indicated ligand to rat brain membranes. The values are from two-five separate experiments and were calculated according to the method of Cheng and Prusoff [Biochem. Pharmacol. 1973, 22, 3099-3108] together with the EBDA Program. Numbers in parentheses are the mean Hill coefficients for each compound to inhibit ligand binding.
(§4) Values represent the MEAN±S.E.M. of the Ki(nM) for each compound to inhibit specific binding of the indicated ligand to rat brain membranes. The values are from two.div.seven separate experiments and were calculated according to the method of Cheng and Prusoff together with the EBDA program. Numbers in parentheses are the mean Hill coefficients for each compound to inhibit ligand binding. N.D.=not determined
(§5) The interaction of some of the novel compounds with mu, delta and kappa - type opioid receptors present in brain membranes was examined in vitro. […] DAGO (mu-type receptor), or [^3 H] DADLE (Delta-type receptor) using rat forebrain membranes and [^3 H] EKC (kappa-type receptor) using guiniea pig cerebellum membrane was determined. Computer assisted analysis (EBDA) was used to determine apparent Ki values for the various compounds.
(§6) The values represent the MEAN±S.E.M. of the Ki(nM) for each compound to inhibit specific binding of the indicated ligand. Each value represents the mean of three individual experiments performed on separate occasions.

The target of data set [2] is delta-type opioid receptor (Rattus norvegicus, UniProt P33533). Nature of the data set: inhibition of specific [^3 H] DADLE binding to rat forebrain membranes. How it is done: as §2, §3, §4, §5, §6
delta-type opioid receptor, sequence (P33533 whole entry): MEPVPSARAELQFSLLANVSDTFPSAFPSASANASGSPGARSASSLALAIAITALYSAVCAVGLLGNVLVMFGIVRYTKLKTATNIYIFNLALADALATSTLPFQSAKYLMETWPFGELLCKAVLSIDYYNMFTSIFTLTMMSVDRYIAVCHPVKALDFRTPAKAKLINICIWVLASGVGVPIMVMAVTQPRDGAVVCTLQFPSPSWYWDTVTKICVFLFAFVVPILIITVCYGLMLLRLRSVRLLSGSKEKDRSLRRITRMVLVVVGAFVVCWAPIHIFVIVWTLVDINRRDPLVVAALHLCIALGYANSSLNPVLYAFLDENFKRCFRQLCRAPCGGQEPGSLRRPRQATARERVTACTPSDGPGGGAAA
In the next data set the test system is tail flick response. The experiment in a line: radiant heat tail flick analgesia in rats. The following applies: for ED50: Rattus norvegicus; for dose producing approximately equal analgesia: tail flick, through 3.5 hr; for antagonism of tail-flick response to heat: rat. The format is in vivo, rat. As for the experimental part:
The analgesic properties of the compounds prepared in accordance with Examples III and IV were evaluated in rats using the radiant heat and tail flick paradigm. […] Flick latencies in FIGS. 11-13 were determined at 30 minute intervals through 3.5 h and the data was expressed as a percentage of the maximum possible effect (% MPE). A 15 sec. cut-off latency was used to minimize tissue damage. The values shown are the mean values for 6 rats.
(§7) A 15 sec. cut-off latency was used to prevent tissue damage.
The analgesic properties of compounds XXII and XXIII were evaluated in rats using the writhing assay and tail flick paradigm. […] The writhing assay which uses a chemical stimulus to produce pain, is believed to be more sensitive to kappa agonist activity than other measures of analgesia which uses a heat stimulus (Dykstra, L.A. Behavioral Pharmacology: The Current Status, N.Y.: Allan R. Liss. Inc. 1985).

Data set [3] in a line: deaths of rats during tail flick experiment at high doses. The following applies: S.C.
Description: as §7

The target of data set [4] is T2, kappa-type opioid receptor (Cavia porcellus, UniProt P41144).
T2 construct: using guiniea pig cerebellum membrane; from tissue; host or cells: guinea pig cerebellum membranes
T2 sequence (P41144 whole entry): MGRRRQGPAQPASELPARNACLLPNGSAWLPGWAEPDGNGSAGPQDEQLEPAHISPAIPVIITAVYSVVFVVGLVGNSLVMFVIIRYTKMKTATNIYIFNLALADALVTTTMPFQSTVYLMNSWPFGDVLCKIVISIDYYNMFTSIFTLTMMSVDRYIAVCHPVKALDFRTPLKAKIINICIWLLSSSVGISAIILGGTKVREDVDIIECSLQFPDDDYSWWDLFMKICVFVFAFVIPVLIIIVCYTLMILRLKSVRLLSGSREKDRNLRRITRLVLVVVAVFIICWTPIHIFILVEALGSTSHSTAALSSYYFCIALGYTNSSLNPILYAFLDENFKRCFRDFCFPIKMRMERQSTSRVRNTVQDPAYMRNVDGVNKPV
The experiment in a line: inhibition of specific [^3 H] EKC binding to guinea pig cerebellum membrane. The following applies: for fold more potent to inhibit specific [3H]EKC: than other compounds or naltrexone. As for the experimental part: as §5, §6

Another data set relates to writhing response. Nature of the data set: animal or person. The format is in vivo, mouse. The following applies: for ED50: Mus musculus, Table 7, read-out: ED50, Acetic Acid Induced Writhing in the Mouse; for potency versus morphine to antagonize writhing response: mouse, in vivo, ip; for kappa selectivity and agonist activity: writhing and tail flick.
A short description of data set [5]: conditioned taste aversion in rats. The format is in vivo, rat. The note with it: I.P., day 10. How it is done: The ability of a compound to inhibit feeding may not be related to its anorectic properties, but rather to the ability of that compound to produce a conditioned taste aversion. This possibility was tested in the following experiment. Animals were adapted to water deprivation by restricting their access to water to a single 30 min presentation occurring at the same time every day. Baseline water intakes were determined for 7 days until intakes had stabilized, and animals were assigned to treatment groups based on their intakes on the final baseline day. On the following day (day 8), all rats received a bottle of condensed milk (diluted 2:1 water:milk) in place of the water, and intakes were recorded for 30 min. Fifteen minutes after the milk was removed, rats were administered an I.P. injection of vehicles, LiCl (299.6 μmol/kg) or the compound of Example XII (1.15, 2.31, 11.55 and 23.09 μmol/kg). The compound of Example XII was dissolved in 0.3% acetic acid in a volume of 4 ml/kg. LiCl was dissolved in saline, and serves as a positive control, since it is a compound that reliably produces a strong conditioned taste aversion. This procedure was repeated on day 9. On day 10, all rats were given a two-bottle choice of water or the milk:water solution, and intakes were recorded for 30 min. Data for each experiment were analyzed by one-way ANOVA, and post-hoc comparisons were performed using Dunnett's test.
The effects of the compound of Example XII in producing a conditioned taste aversion are illustrated in FIGS. 28 and 29. In FIGS. 28 and 29 the data represent the mean ±SEM for each group. **=p<0.01 (Dunnett's test). Abbreviations: SAL, saline; AA, 0.3% acetic acid in distilled water; LiCl, lithium chloride. Doses of the compound of Example XII for each group are expressed in μmole/kg. The number of animals per group: SAL, 4: AA, LiCl and each dose of Example XII, 5. FIG. 28: Total milk intake in ml on day 10. FIG. 29: Preference ratio on day 10.

For data set [6] the following is noted: 1 and 2 mg/kg; cited from earlier work.
Data set [7] has as its system oxymorphonazine (OMZ)-induced analgesia. The experiment in a line: antagonism of oxymorphonazine (OMZ)-induced analgesia (tail flick) in rats. The following applies: S.C. The format is in vivo, rat. How it is done:
The compound of Example XII was evaluated for its potency and duration in the antagonism of oxymorphonazine (OMZ)-induced analgesia. […] Data represent the mean SEM of 4-5 animals per group.
as §1

For data set [8] the following is noted: Simone et al.; cited from earlier work.
[9] abbreviates: Ki, inhibition of specific [^3 H] DAGO binding, Tables 1 and 2, rat brain membranes, MEAN±S.E.M.
Setting [10] is: read-out: Ki, inhibition of specific [^3 H] DADLE binding, Tables 1 and 2, rat brain membranes, MEAN±S.E.M.
The mark [11] stands for this setting: sc, 0.5 h, S.C., 30 min, read-out: ED50, tail flick analgesia.
[12] abbreviates: (Ki) nM, μ receptor (Rat Forebrain), Table 6, [^3 H] DAGO, mean of three experiments.
[13] abbreviates: read-out: (Ki) nM, δ receptor (Rat Forebrain), Table 6, [^3 H] DADLE, mean of three experiments.
Setting [14] is: Table 7, read-out: ED50, Antagonism of the Tail-Flick Response in the Rat.
[15] abbreviates: dose tested (mg/kg): Naltrexone 0.5, Nalmefene 1.0, XI 10.0, XII 2.5, XIII 0.5, XIV 5.0.

T1 sequence (P33535 whole entry): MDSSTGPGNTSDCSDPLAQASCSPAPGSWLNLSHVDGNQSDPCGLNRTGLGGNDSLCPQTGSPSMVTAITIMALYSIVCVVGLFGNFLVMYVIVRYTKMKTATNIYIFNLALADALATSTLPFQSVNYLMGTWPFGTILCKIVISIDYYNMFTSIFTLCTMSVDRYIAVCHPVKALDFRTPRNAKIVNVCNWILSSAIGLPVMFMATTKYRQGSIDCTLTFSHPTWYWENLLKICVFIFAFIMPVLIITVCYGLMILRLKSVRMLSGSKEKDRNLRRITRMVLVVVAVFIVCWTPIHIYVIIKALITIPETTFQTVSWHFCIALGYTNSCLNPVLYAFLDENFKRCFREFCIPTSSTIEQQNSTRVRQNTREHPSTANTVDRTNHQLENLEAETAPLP

For the compound `Oc1ccc2c3c1O[C@H]1C(=NOCCCc4ccccc4)CC[C@@]4(O)[C@@H](C2)N(CC2CC2)CC[C@]314` [6[3-phenylpropyl] oximino naltrexone], in [1], the ED50 was 0.08 mg/kg.
In the case of `CN1CC[C@]23c4c5ccc(O)c4O[C@H]2C(=NOCc2ccccc2)CC[C@@]3(O)[C@H]1C5` [Example III, 6-Benzyloximino-17-methyl-4,5 α-epoxy-3, 14-dihydroxymorphinan], the Ki at mu-type opioid receptor (setting [9]) turned out to be 1.58 ± 0.07 nM; in [2] (setting [10]), 2.8 ± 1.6 nM. In addition, the ED50 in the data set on tail flick response (setting [11]) came to 0.64 µmol/kg. Further, the “dose producing approximately equal analgesia” value in the data set on tail flick response (S.C.) is about 2.21 µmol/kg. Moreover, the figures for the “number of deaths out of six rats” value in [3] (8.85 μmole/kg), in [3] (17.7 μmole/kg) and in data set [3] (26.6 μmole/kg) were 1, 3 and 3, respectively.
Turning to `CN1CC[C@]23c4c5ccc(O)c4O[C@H]2C(=NOc2ccccc2)CC[C@@]3(O)[C@H]1C5` [Example IV, 6-Phenyloximino-17-methyl-4,5 α-epoxy-3, 14-dihydroxymorphinan], the Ki is 0.84 ± 0.09 nM on mu-type opioid receptor (setting [9]) and 0.91 ± 0.1 nM in data set [2] (setting [10]). In addition, in the data set on tail flick response (setting [11]), the ED50 was 0.18 µmol/kg. Besides, the “dose producing approximately equal analgesia” value with tail flick response (S.C.) is about 1.12 µmol/kg. The “number of deaths out of six rats” value in data set [3] (4.48 μmole/kg) was 1; in [3] (8.95 μmole/kg) it was 1; in data set [3] (13.4 μmole/kg), 2.
With `Oc1ccc2c3c1O[C@H]1C(=NOCCc4ccccc4)CC[C@@]4(O)[C@@H](C2)N(CC2CC2)CC[C@]314` [Example XXII, 6-[2-phenethyl]oximino-17-cyclopropylmethyl-4,5 α-epoxy-3,14-dihydroxymorphinan], the affinity at mu-type opioid receptor (setting [12]) corresponds to a Ki of 0.88 nM. Moreover, in data set [2] (setting [13]), the inhibitory constant (Ki) came to 0.6 nM. Besides, in [4], the Ki was determined as 0.28 nM and the “fold more potent to inhibit specific [3H]EKC” value turned out to be 3 fold. The ED50 in the data set with tail flick response (setting [14]) amounted to 4.02 mg/kg. The “antagonism of tail-flick response to heat” value in the data set with tail flick response is given as “effectively antagonized the tail-flick response to a heat stimulus in the rat”. Moreover, in the data set on writhing response, the ED50 came to 0.01 mg/kg; the “potency versus morphine to antagonize writhing response” value is reported as “more potent than morphine to antagonize the writhing response”; the “kappa selectivity and agonist activity” value was “selective to kappa receptors and possess kappa agonist activity”.
Consider `Oc1ccc2c3c1O[C@H]1C(=NOCCCc4ccccc4)CC[C@@]4(O)[C@@H](C2)N(CC2CC2)CC[C@]314` [Example XXIII], for which the inhibition constant Ki on mu-type opioid receptor (read-out: (Ki) nM, μ receptor (Rat Forebrain), Table 6, [^3 H] DAGO, mean of three experiments) is 0.32 nM. Moreover, the Ki in data set [2] (setting [13]) was determined as 0.44 nM. For the same compound, the “fold more potent to inhibit specific [3H]EKC” value in data set [4] amounted to 100 fold. In the data set with tail flick response (setting [14]), the ED50 came to 1.84 mg/kg. The “antagonism of tail-flick response to heat” value in the data set with tail flick response is “effectively antagonized the tail-flick response to a heat stimulus in the rat”. Moreover, in the data set with writhing response, the ED50 amounted to 0.02 mg/kg; the “potency versus morphine to antagonize writhing response” value is reported as “more potent than morphine to antagonize the writhing response”; the “kappa selectivity and agonist activity” value is “selective to kappa receptors and possess kappa agonist activity”.
Consider `[Cl-].[Li+]` [LiCl, lithium chloride, reference compound], for which, in [5], the “conditioned taste aversion (milk intake, preference ratio)” value is “significant decreases in milk intake and in the preference ratio were evident only for LiCl”.
For `COC(=O)CON=C1CC[C@@]2(O)[C@H]3Cc4ccc(OC)c5c4[C@@]2(CCN3CC2CC2)[C@H]1O5` [N-cyclopropylmethyl-nor-14-hydroxydihydrocodeinone-6-carboxymethyl methyl ester], the “suppression of symptoms in morphine dependent monkeys” value in [6] was “partial suppression of symptoms was obtained”.
Take `C=C1CC[C@@]2(O)[C@H]3Cc4ccc(O)c5c4[C@@]2(CCN3CC2CC2)[C@H]1O5` [Nalmefene, reference compound]: the Ki at mu-type opioid receptor (setting [12]) came to 0.64 nM. For the same compound, the inhibitory constant (Ki) in data set [2] (setting [13]) is 0.87 nM. The inhibition constant (Ki) in data set [4] stood at 0.89 nM. Further, the ED50 in data set [7] (Rattus norvegicus, sc, Table 8, read-out: ED 50, oxymorphonazine antagonism) turned out to be 0.12 mg/kg. Also, the ED100 in [7] (Rattus norvegicus, sc, Table 8, read-out: ED 100, oxymorphonazine antagonism) was 1.35 mg/kg. Further, in data set [7] (setting [15]), the “Percent Antagonism at 1 Hr” value was 85%, the “Percent Antagonism at 1.5 Hr” value worked out at 92%, the “Percent Antagonism at 2 Hr” value was found to be 83% and the “Percent Antagonism at 3 Hr” value is 73%. In data set [7] (setting [15]), the “Percent Antagonism at 4 Hr” value was determined as 46%, the “Percent Antagonism at 6 Hr” value was 0% and the “Percent Antagonism at 8 Hr” value is given as 37%. Further, in the data set on writhing response, the ED50 is over 30 mg/kg.
Take `C=CCN1CC[C@]23c4c5ccc(O)c4O[C@H]2/C(=N/N=C2\CC[C@@]4(O)[C@H]6Cc7ccc(O)c8c7[C@@]4(CCN6CC=C)[C@H]2O8)CC[C@@]3(O)[C@H]1C5` [naloxonazine]: the “inhibition of overnight feeding” value in data set [8] is listed as “inhibition of overnight feeding”.
